This is an account of results in US12662688B2, “Site-selective deuteration of amino acids through dual protein catalysis” (Wisconsin Alumni Research Foundation, priority 2022, dated 2026).

The structures appear in SMILES notation.

One assay concerns DsaD-MfnH protein pair. Put plainly: Analytical-scale H/D exchange with purified DsaD and MfnH. The assay is classed as biochemical, Streptomyces scopuliridis; Streptomyces drozdowiczii. The conditions noted are these: 5 μM DsaD, 50 μM MfnH (1:10 DsaD:MfnH). The method, then:
FIG. 4. Deuteration of L-Leu using purified DsaD (5 μM) and MfnH (50 μM) using the described procedure for analytical-scale H/D exchange. Results are reported as the average of 2 trials.
(§1) General procedure analytical scale deuteration reactions: α/β deuteration reactions were performed as follows. A 1 mL Eppendorf tube was charged with amino acid (10-20 mM final concentration), Na3PO4 buffer pD 8.4 (50 mM final concentration), PLP (100 μM final concentration), purified enzymes or appropriate lysate and D2O and to the appropriate final volume (typically 50 μL). Reactions were carried out at 37° C. for 8 h and quenched by the addition of 3 volumes of acetonitrile. Precipitated biomolecules were pelleted by centrifugation (16,000×g, 10 min) and samples were processed as described below.
In the original report by Li et al. describing DsaE, a homologous enzyme with 42% sequence identity, MfnH, was disclosed.^29 This homolog could operate with DsaD to catalyze Cβ-epimerization of Ile. Here, we test the ability of MfnH to productively catalyze H/D exchange reactions. We performed reactions with purified MfnH, DsaD (1:10 DsaD:MfnH), and L-Leu under the conditions described for DsaD/E-catalyzed reactions (FIG. 4). […] We also attempted isolation of MfnO, the native BCAT partner of MfnH, but produced only apo-enzyme.

Assay [1] addresses T1, DsaE with native E. coli BCATs (Escherichia coli, UniProt P0AB80, E236D).
T1 construct: DsaE can utilize native BCATs present at biological concentrations (without overexpression) to perform H/D exchange; made in house; host or cells: Clarified lysate of E. coli BL21(DE3) overexpressing DsaE; the BCAT is endogenous to the host
Put plainly: Analytical-scale H/D exchange with DsaE lysate only. The assay is classed as biochemical. The conditions noted are these: 5% v/v DsaE lysate, no DsaD. The protocol: (§2) FIG. 7. Deuteration of L-Leu using only DsaE lysate (5% v/v) with minimal H2O contamination (99.9% D). Reactions were performed using the described procedure for analytical-scale H/D exchange. Results are reported as the average of 3 trials.
(§3) In another version, DsaE operates with a BCAT enzyme other than DsaD to effect a Cα/Cβ-exchange. For example, DsaE clarified cell lysates (CCLs) can achieve Cα and Cβ-deuteration without the addition of the aminotransferase DsaD. Instead of relying on DsaD as a partner for catalysis, DsaE promiscuously interacts with native branched-chain amino acid aminotransferases (BCATs) expressed by E. coli (SEQ ID NO: 2) for primary metabolism. No overexpression of BCAT is necessary to induce this activity. We simply overexpressed partner protein DsaE and generated a clarified cell lysate from the resulting E. coli. […] The reaction is as follows:
(§4) General procedure analytical scale deuteration reactions: α/β deuteration reactions were performed as follows. A 1 mL Eppendorf tube was charged with amino acid (10-20 mM final concentration), Na3PO4 buffer pD 8.4 (50 mM final concentration), PLP (100 μM final concentration), purified enzymes or appropriate lysate and D2O and to the appropriate final volume (typically 50 μL). Reactions were carried out at 37° C. for 8 h and quenched by the addition of 3 volumes of acetonitrile. […]

In assay [2] the target is T2, DsaE with native E. coli BCATs (Escherichia coli, UniProt P0AB80).
T2 construct: DsaE can utilize native BCATs present at biological concentrations (without overexpression) to perform H/D exchange; made in house; host or cells: Clarified lysate of E. coli BL21(DE3) overexpressing DsaE; the BCAT is endogenous to the host
Described as above. Type of assay: biochemical. The conditions noted are these: 5% v/v DsaE lysate, no DsaD. The method, then: as §2, §3, §4

The test system of a further assay is DsaD/E lysates. Put plainly: Analytical-scale H/D exchange with pre-dialyzed DsaD and DsaE lysates. Type of assay: biochemical, Streptomyces scopuliridis. The conditions noted are these: lysates pre-dialyzed into D2O—Na3PO4 buffer pD 8.4, 99.9% D. The protocol: FIG. 6. Deuteration of L-Leu under conditions with minimal H2O contamination (99.9% D) using DsaD and DsaE lysates that were pre-dialyzed in 50 mM D2O—Na3PO4 (pD 8.4). Reactions performed using the described procedure for analytical-scale H/D exchange. Results are reported as the average of 3 trials.
as §1
Exchange of DsaD and DsaE into D2O—Na3PO4 buffer system: When necessary, clarified lysates and purified proteins were exchanged into a D2O-based buffer system containing 50 mM Na3PO4 (−) using a Slide-A-Lyzer MINI dialysis device (ThermoFisher) with a 3 KDa cutoff. A maximum of 500 μL of lysate or protein was added to the device and exchanged 3 times into the D2O buffer at 4° C. before setting up reactions.

T1 sequence (P0AB80 2-309 E236D): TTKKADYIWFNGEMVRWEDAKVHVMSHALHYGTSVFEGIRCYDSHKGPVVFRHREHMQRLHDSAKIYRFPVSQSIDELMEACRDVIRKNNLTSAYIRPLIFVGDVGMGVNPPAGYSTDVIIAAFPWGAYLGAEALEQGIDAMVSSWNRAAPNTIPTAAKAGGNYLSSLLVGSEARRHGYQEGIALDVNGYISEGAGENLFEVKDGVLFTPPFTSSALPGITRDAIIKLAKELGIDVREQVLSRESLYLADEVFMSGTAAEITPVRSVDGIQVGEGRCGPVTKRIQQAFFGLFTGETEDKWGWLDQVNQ
T1 sequence (as listed by the source, stated change not applied): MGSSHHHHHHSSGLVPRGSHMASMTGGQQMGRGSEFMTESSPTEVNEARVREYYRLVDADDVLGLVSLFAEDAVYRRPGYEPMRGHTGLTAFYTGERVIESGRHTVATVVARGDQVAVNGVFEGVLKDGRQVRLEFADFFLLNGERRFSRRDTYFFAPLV
T2 sequence (P0AB80 2-309 E236D): as the sequence (P0AB80 2-309 E236D) above
T2 sequence (as listed by the source, change not shown): as the sequence (as listed by the source, stated change not applied) above

As for `CC(C)C[C@H](N)C(=O)O` [Leu, leucine], in the assay with DsaD-MfnH protein pair, the “deuterium labeling at Cβ” value stood at 58% and the “exchange at Cα” value stood at 93%. Further, the “labeling at Cα” value in assay [1] is more than 95%. Besides, in assay [2], the “deuterium incorporation at Cβ” value is recorded as 70%. Further, in the assay with DsaD/E lysates, the “D-incorporation at Cα” value is listed as more than 99% and the “D-incorporation at Cβ” value is recorded as 98%.
